System: vagus nerve
Test: Cervical vagus nerve electrophysiological recording after IL-1β challenge
Assay type: in vivo, mice
Procedure: FIG. 3. TRPA1 is required for IL-1β induced vagus nerve signaling. Vagus nerve firing rate in 60s-Bins (mean±SEM) starting 5 min prior to IL-1β injection (350 ng/kg) indicated by arrow followed by 5 min post injection time.
Mice were induced with general anesthesia using isoflurane at 2.5% in 100% oxygen at a flow rate of 1 L/min. Once anesthetized, the mouse was moved to a supine position with the isoflurane maintained at 2.0% during surgery. The nerve was then isolated as described in previous publications^10,11,17. The core body temperature was monitored with a rectal probe and maintained around 37° C. with a heating pad and heat lamp. Prior to recording and nerve placement within the cuff, the electrode was submerged briefly in saline solution.
The electrophysiological signals were digitized from the vagus nerve using a Plexon data acquisition system (Omniplex, Plexon Inc., Dallas, Tex.). Recordings were sampled at 40 kHz with a 120 Hz filter and 50 gain. All signals were recorded from a bipolar cuff electrode referenced to the animal ground placed between the right salivary gland and the skin. In experiments with IL-1β challenge, following acquisition of the baseline activity (10 min), 350 ng/kg recombinant human IL-1β (eBioscience, San Diego, Calif.) was administered intraperitoneally; recordings were then continued for 10 min post-injection.
Analysis of raw recordings was done on Spike2 software (version 7, CED). Raw recordings were filtered (using a high pass filter) and smoothed. To identify neural signals, a user-specific adaptive threshold was employed. All signals were identified as neuronal or non-neuronal. Non-neuronal signals, which consisted mainly of cardiac and respiratory components, were manually removed. All recordings with no identifiable neuronal spikes were removed from analyses.
To recognize how knocking out TRPA1 further effects inflammatory signaling, TRPA1 KO and WT mice were injected with either saline or IL-1β ([…]).
To further determine fiber specificity, a TRPV1 cell depletion model was employed by breeding TRPV1-Cre mice with ROSA-DTA mice. […] To identify if TRPV1 itself is necessary for propagation of the signal, recordings were done in a genetic TRPV1 knockout (TRPV1 KO) mouse. […] To determine a molecular target on TRPV1+ neurons mediating afferent IL-1β signaling, the cation channel TRPA1 was identified. TRPA1 is found on a subset of TRPV1+ neurons; approximately 30%. However, TRPA1 co-localized with TRPV1 on 97% of TRPA1+ neurons^26.

In the case of “IL-1β: interleukin 1β; recombinant human IL-1β for nerve recordings, murine (rmIL-1β) for thermoregulation”, the Vagus nerve activation (TRPA1 KO mice) is reported as “fails to induce activation of the vagus nerve”, the Vagus nerve activity (TRPV1 KO mice) is reported as “significant increase” and the Vagus nerve activity (TRPV1 cell depletion model (TRPV1-Cre x ROSA-DTA mice)) is reported as “No significant enhancement of vagus nerve activity”. The Vagus nerve activation (wild type mice) was “induces activation of the vagus nerve”.
